Experimental data reported in publication PMC6151990, “Effects of P-Glycoprotein on the Transport of DL0410, a Potential Multifunctional Anti-Alzheimer Agent” (Molecules : A Journal of Synthetic Chemistry and Natural …, 2017).
Structures can show the parent of a compound that is named as a salt.

Tests used:
[1] = Transcellular transport across MDCK cell monolayer; format: in vitro ADME, Canine; details: dog
Experimental: (§2) Caco-2, MDCK and MDCK-MDR1cells were cultured at seeding densities of 1 × 10^5, 2 × 10^5, 2 × 10^5 cells/cm^2, respectively, onto polycarbonate membrane transwell inserts in 12-well plates. Prior to performing the transport studies, we determined the values of Trans Epithelial Electric Resistance (TEER) and Papp values of fluorescein to ensure the integrity of the monolayers [16]. After seeding for 18 and 21 days, the cultural medium of transwell chambers was removed carefully and washed twice with HBSS (pH 7.4, 37 °C), and then pre-incubated for 30 min at 37 °C. The transwell chambers were incubated for 20 min at 37 °C. […] After incubation for 2 h, the liquor of each side was collected for determination.
(§3) To analyze DL0410 in HBSS buffer, 15 µL of IS working solution (phenacetin, 1 µg/mL) and 150 µL sample were mixed with 1000 µL ethyl acetate to extract the analytes, and then vortexed for 5 min. After centrifuging at 13,000 rpm for 10 min, the supernatant was added into another tube carefully and evaporated to dryness under a gentle flow of nitrogen gas. The residue was reconstituted in 60 µL acetonitrile–water (20:80, v/v, containing 0.5% formic acid). After centrifugation, the supernatant was used for analysis. The analytical column was Agilent Zorbax SD-C18 (100 mm × 2.1 mm, 3.5 µm; Agilent Technologies, Santa Clara, CA, USA). The mobile phase was made up of acetonitrile–water (0.5% formic acid) (20:80, v/v). Injection volume, flow rate, and column temperature were 20 µL, a 0.3 mL/min, and 35 °C, respectively. The mass spectrometer was operated in the positive scan mode. The conditions of ESI source were as follows: drying gas flow was set at 10 L/min, nebulizer pressure was 35.0 psig, capillary voltage was 3000 V, and drying gas temperature was 350 °C. The ESI was performed using nitrogen to assist nebulization.
(§4) The Papp values (cm/s) were computed according to the following equation [16], Papp=V/C0×1/S×dC/dt (V: volume of medium in the receiver chamber (mL); C0: initial concentration in the donor chamber (µM/mL), S: the surface area of monolayer (cm^2); dC/dt: variance rate in the receptor chamber of concentration with time (µM/mL/s)) The ER was calculated by the Papp value from BL to AP divided by Papp value from AP to BL. In MDCK-MDR1 and MDCK cell models, the NER was measured by comparing the ER values as follows [16]. (1) ER=Papp(B−A)/Papp(A−B) (2) NER=ERMDCK−MDR1/ERMDCK

[2] = Transcellular transport across MDCK-MDR1 cell monolayer; format: in vitro ADME, Canine; details: dog; MDCK-MDR1 monolayer, integrity control; read-out: permeability value
Experimental: as §2, §3, §4

Caco-2 cell monolayer = assay: Transcellular transport across Caco-2 cell monolayer; format: in vitro ADME; details: human, Caco-2
Experimental: as §2, §3, §4

[3] = as above; format: in vitro ADME; details: human
Experimental: as §2, §3, §4

human P-gp membranes = human P-gp membranes (Homo sapiens, UniProt P08183); assay: P-gp ATPase activity (Pgp-Glo assay); details: P-gp ATPase stimulation
MDCK cells = assay: CCK-8 cytotoxicity assay, MDCK; format: cell-based, Canine; details: 100 µM, 12 h
Experimental: (§1) The cytotoxicity of DL0410 was determined by the CCK-8 assay. Caco-2 Cells, at a density of 1 × 10^5 cells/mL, were seeded in 96-well plates for culture. The seeding density of MDCK and MDCK-MDR1cells were 0.8 × 10^5 cells/mL. Two days after seeding, increasing concentrations (0.1, 1, 10, 100 µM) of DL0410 were added for treatment, and cytotoxicity was measured after 12 h by the CCK-8 assay.

P-gp [4] = target: T1, P-gp (Homo sapiens, UniProt P08183); assay: Effect on Rho123 transport (BL to AP) in MDCK-MDR1 cells; format: cell-based; details: MDCK-MDR1, Rho123 10 µM, DL0410 50 µM, 2 h
T1 construct: expressed in transfected cells; host or cells: MDCK-MDR1 (canine kidney MDCK cells transfected with the human MDR1 gene)

Caco-2 cells = assay: CCK-8 cytotoxicity assay, Caco-2; format: cell-based, human; details: Caco-2, 100 µM, 12 h
Experimental: as §1

MDCK-MDR1 cells = assay: CCK-8 cytotoxicity assay, MDCK-MDR1; format: cell-based, Canine; details: MDCK-MDR1, 100 µM, 12 h
Experimental: as §1

MDCK-MDR1 cell monolayer = assay: Transcellular transport across MDCK-MDR1 cell monolayer; format: in vitro ADME, Canine; details: ER MDCK-MDR1 / ER MDCK
Experimental: as §2, §3, §4

P-gp [5] = assay: as above; format: in vitro ADME, Canine; details: dog, pH 7.4
Experimental: as §2, §3, §4

P-gp (MDR1) = assay: as above; format: in vitro ADME, Canine; details: dog, pH 7.4; MDCK-MDR1, DL0410 10 μM; read-out: ER
Experimental: as §2, §3, §4

human P-gp membranes, sequence (P08183 whole entry): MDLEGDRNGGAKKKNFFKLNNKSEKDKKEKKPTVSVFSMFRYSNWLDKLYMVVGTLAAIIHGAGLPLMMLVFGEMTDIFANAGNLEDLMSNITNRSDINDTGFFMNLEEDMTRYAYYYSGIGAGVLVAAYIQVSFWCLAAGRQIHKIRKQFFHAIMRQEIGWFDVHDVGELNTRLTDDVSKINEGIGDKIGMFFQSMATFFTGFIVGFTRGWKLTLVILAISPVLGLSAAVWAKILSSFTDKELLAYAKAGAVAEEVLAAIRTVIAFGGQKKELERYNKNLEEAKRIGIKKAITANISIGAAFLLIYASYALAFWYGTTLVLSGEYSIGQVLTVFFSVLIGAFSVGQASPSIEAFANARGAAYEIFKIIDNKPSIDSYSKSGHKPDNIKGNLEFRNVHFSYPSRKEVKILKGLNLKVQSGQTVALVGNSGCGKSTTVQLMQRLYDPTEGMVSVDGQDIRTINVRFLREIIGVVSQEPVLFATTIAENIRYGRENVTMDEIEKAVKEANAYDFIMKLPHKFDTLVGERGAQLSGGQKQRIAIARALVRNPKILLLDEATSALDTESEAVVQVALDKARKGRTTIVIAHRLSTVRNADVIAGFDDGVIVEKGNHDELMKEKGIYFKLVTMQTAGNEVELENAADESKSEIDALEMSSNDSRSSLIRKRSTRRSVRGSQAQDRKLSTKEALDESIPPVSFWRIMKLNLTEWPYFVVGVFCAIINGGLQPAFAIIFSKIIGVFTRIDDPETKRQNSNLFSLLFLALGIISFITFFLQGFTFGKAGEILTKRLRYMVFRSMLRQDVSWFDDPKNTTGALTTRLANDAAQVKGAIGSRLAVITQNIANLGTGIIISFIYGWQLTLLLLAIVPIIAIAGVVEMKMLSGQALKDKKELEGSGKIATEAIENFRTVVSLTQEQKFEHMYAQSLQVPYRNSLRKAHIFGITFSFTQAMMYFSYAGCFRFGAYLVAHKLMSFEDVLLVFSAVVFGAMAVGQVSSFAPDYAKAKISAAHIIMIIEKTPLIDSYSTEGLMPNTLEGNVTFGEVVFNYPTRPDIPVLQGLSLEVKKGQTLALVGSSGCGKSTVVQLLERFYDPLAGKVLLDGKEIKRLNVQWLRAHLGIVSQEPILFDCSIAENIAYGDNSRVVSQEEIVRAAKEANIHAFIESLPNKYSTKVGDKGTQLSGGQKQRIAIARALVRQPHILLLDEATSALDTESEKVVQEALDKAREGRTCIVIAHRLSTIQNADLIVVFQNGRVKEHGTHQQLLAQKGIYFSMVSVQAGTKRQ
T1 sequence (P08183 whole entry): as above

Which Papp ([1]; MDCK monolayer, integrity control, read-out: permeability value) does the source give for `O=C1OC2(c3ccc(O)cc3Oc3cc(O)ccc32)c2ccccc21` [fluorescein, reference compound] here?
Its Papp is 0.702 ×10⁻⁶ cm/s.

What about the Papp [2] of the same compound?
The Papp was 0.571 ×10⁻⁶ cm/s.

What about the penetration rate (Caco-2 cell monolayer) of the same compound?
The penetration rate was 0.10%.

What about the Papp ([3]; Caco-2 monolayer, integrity control, read-out: apparent permeability (Papp)) of the same compound?
The Papp was 1.09 ×10⁻⁶ cm/s.

Which “concentration at which the activity of ATPase was saturated” value (human P-gp membranes) does the source give for `COc1ccc(CCN(C)CCCC(C#N)(c2ccc(OC)c(OC)c2)C(C)C)cc1OC` (stereo not shown) [Verapamil, reference compound] here?
The value was 100 µM.

Which cytotoxicity (MDCK cells) does the source give for `O=C(CCN1CCCCC1)c1ccc(-c2ccc(C(=O)CCN3CCCCC3)cc2)cc1` [DL0410, 1,1’-([1,1’-Biphenyl]-4,4’-diyl)bis(3-(piperidin-1-yl)propan-1-one)dihydrochloride] here?
The cytotoxicity was “no significant cytotoxic effect”.

What about the “concentration at which the activity of ATPase was saturated” value (human P-gp membranes) of the same compound?
The value was 150 µM.

And the “effect on Rho123 transport from BL to AP” value (P-gp [4])?
The value was “reduced Rho123 efflux”.

What about the cytotoxicity (Caco-2 cells) of the same compound?
The cytotoxicity was “no significant cytotoxic effect”.

And the efflux ratio at 2 h ([1]; pH 7.4, MDCK cells, summary value in text, read-out: ER)?
The efflux ratio at 2 h was roughly 1.

What about the Papp A→B at 2 h, 10 µM ([1]; pH 7.4, MDCK, DL0410 10 μM) of the same compound?
The Papp A→B at 2 h, 10 µM was 0.502 ± 0.103 ×10⁻⁶ cm/s.

And the Papp B→A at 2 h, 10 µM ([1]; pH 7.4, MDCK, DL0410 10 μM)?
The Papp B→A at 2 h, 10 µM was 0.708 ± 0.114 ×10⁻⁶ cm/s.

What about the efflux ratio at 2 h, 10 µM ([1]; pH 7.4, MDCK, DL0410 10 μM, read-out: ER) of the same compound?
The efflux ratio at 2 h, 10 µM was 1.41.

And the Papp A→B at 2 h, 30 µM ([1]; pH 7.4, MDCK, DL0410 30 μM)?
Its Papp A→B at 2 h, 30 µM is 0.74 ± 0.023 ×10⁻⁶ cm/s.

What about the Papp B→A at 2 h, 30 µM ([1]; pH 7.4, MDCK, DL0410 30 μM) of the same compound?
The Papp B→A at 2 h, 30 µM was 0.871 ± 0.068 ×10⁻⁶ cm/s.

And the efflux ratio at 2 h, 30 µM ([1]; pH 7.4, MDCK, DL0410 30 μM, read-out: ER)?
Its efflux ratio at 2 h, 30 µM is 1.18.

What about the Papp A→B at 2 h, 100 µM ([1]; pH 7.4, MDCK, DL0410 100 μM) of the same compound?
Its Papp A→B at 2 h, 100 µM is 0.95 ± 0.116 ×10⁻⁶ cm/s.

What about the Papp B→A at 2 h, 100 µM ([1]; pH 7.4, MDCK, DL0410 100 μM) of the same compound?
The Papp B→A at 2 h, 100 µM was 0.924 ± 0.005 ×10⁻⁶ cm/s.

What about the efflux ratio at 2 h, 100 µM ([1]; pH 7.4, MDCK, DL0410 100 μM, read-out: ER) of the same compound?
The efflux ratio at 2 h, 100 µM was 0.973.

And the cytotoxicity (MDCK-MDR1 cells)?
The cytotoxicity was “no significant cytotoxic effect”.

What about the NER (MDCK-MDR1 cell monolayer; DL0410 10 μM) of the same compound?
Its NER is 10.588.

What about the NER (MDCK-MDR1 cell monolayer; DL0410 30 μM) of the same compound?
The NER was 8.770.

And the NER (MDCK-MDR1 cell monolayer; DL0410 30 μM + verapamil (50 μM))?
The NER was 0.311.

What about the NER (MDCK-MDR1 cell monolayer; DL0410 100 μM) of the same compound?
Its NER is 5.556.

What about the Papp A→B at 2 h, 10 µM (P-gp [5]; MDCK-MDR1, DL0410 10 μM) of the same compound?
Its Papp A→B at 2 h, 10 µM is 0.297 ± 0.111 ×10⁻⁶ cm/s.

What about the Papp B→A at 2 h, 10 µM (P-gp [5]; MDCK-MDR1, DL0410 10 μM) of the same compound?
The Papp B→A at 2 h, 10 µM was 4.43 ± 0.376 ×10⁻⁶ cm/s.

What about the Papp A→B at 2 h, 30 µM (P-gp [5]; MDCK-MDR1, DL0410 30 μM) of the same compound?
The Papp A→B at 2 h, 30 µM was 0.31 ± 0.021 ×10⁻⁶ cm/s.

What about the Papp B→A at 2 h, 30 µM (P-gp [5]; MDCK-MDR1, DL0410 30 μM) of the same compound?
Its Papp B→A at 2 h, 30 µM is 3.21 ± 0.061 ×10⁻⁶ cm/s.

What about the efflux ratio at 2 h, 30 µM (P-gp [5]; MDCK-MDR1, DL0410 30 μM, read-out: ER) of the same compound?
The efflux ratio at 2 h, 30 µM was 10.3.

And the Papp A→B at 2 h, 100 µM (P-gp [5]; MDCK-MDR1, DL0410 100 μM)?
The Papp A→B at 2 h, 100 µM was 0.321 ± 0.039 ×10⁻⁶ cm/s.

What about the Papp B→A at 2 h, 100 µM (P-gp [5]; MDCK-MDR1, DL0410 100 μM) of the same compound?
The Papp B→A at 2 h, 100 µM was 1.73 ± 0.105 ×10⁻⁶ cm/s.

And the efflux ratio at 2 h, 100 µM (P-gp [5]; MDCK-MDR1, DL0410 100 μM, read-out: ER)?
Its efflux ratio at 2 h, 100 µM is 5.41.

What about the efflux ratio at 2 h, 10 µM (P-gp (MDR1)) of the same compound?
The efflux ratio at 2 h, 10 µM was 14.9.

And the Papp A→B at 2 h, 10 µM ([3]; pH 7.4, Caco-2, DL0410 10 μM)?
Its Papp A→B at 2 h, 10 µM is 0.725 ± 0.184 ×10⁻⁶ cm/s.

And the Papp B→A at 2 h, 10 µM ([3]; pH 7.4, Caco-2, DL0410 10 μM)?
The Papp B→A at 2 h, 10 µM was 3.27 ± 0.251 ×10⁻⁶ cm/s.

What about the efflux ratio at 2 h, 10 µM ([3]; pH 7.4, Caco-2, DL0410 10 μM, read-out: ER) of the same compound?
Its efflux ratio at 2 h, 10 µM is 4.52.

And the Papp A→B at 2 h, 30 µM ([3]; pH 7.4, Caco-2, DL0410 30 μM)?
The Papp A→B at 2 h, 30 µM was 0.841 ± 0.098 ×10⁻⁶ cm/s.

And the Papp B→A at 2 h, 30 µM ([3]; pH 7.4, Caco-2, DL0410 30 μM)?
Its Papp B→A at 2 h, 30 µM is 3.45 ± 0.619 ×10⁻⁶ cm/s.

And the efflux ratio at 2 h, 30 µM ([3]; pH 7.4, Caco-2, DL0410 30 μM, read-out: ER)?
Its efflux ratio at 2 h, 30 µM is 4.1.

And the Papp A→B at 2 h, 100 µM ([3]; pH 7.4, Caco-2, DL0410 100 μM)?
Its Papp A→B at 2 h, 100 µM is 1.28 ± 0.017 ×10⁻⁶ cm/s.

What about the Papp B→A at 2 h, 100 µM ([3]; pH 7.4, Caco-2, DL0410 100 μM) of the same compound?
Its Papp B→A at 2 h, 100 µM is 2.38 ± 0.138 ×10⁻⁶ cm/s.

What about the efflux ratio at 2 h, 100 µM ([3]; pH 7.4, Caco-2, DL0410 100 μM, read-out: ER) of the same compound?
Its efflux ratio at 2 h, 100 µM is 1.86.

And the Papp at 2 h ([3]; pH 7.4, Caco-2, summary value in text (A→B), read-out: apparent permeability (Papp))?
The Papp at 2 h was roughly 1 ×10⁻⁶ cm/s.
